Test results as given in publication PMC9775652, “Concomitant Administration of Red Ginseng Extract with Lactic Acid Bacteria Increases the Plasma Concentration of Deglycosylated Ginsenosides in Healthy Human Subjects” (Biomolecules, 2022).
Where two headings read alike, the source gives them in different places.

Legend:
[1] = Pharmacokinetic study of ginsenosides in healthy humans after repeated oral RGE with or without LAB; format: in vivo, human
Method: A single-sequence study consisting of two periods was conducted on five healthy male subjects (body weight > 50 kg and age > 19 years) for 29 days. During the first period of the study (RGE treatment group), three pouches of RGE (30 mL, 104.1 mg of total ginsenosides) were administered to 5 subjects once daily for 14 days. On the 14th day, the subjects were admitted to the Clinical Trial Center of KNUH at 7 AM and underwent the last RGE administration at approximately 8–9 AM. Blood samples (approximately 3 mL) were collected at 0, 4, 6, 8, 10, 12, 13, 14, and 24 h after the last dose. A saline-locked angiocatheter was placed on the forearm of each subject’s hand. After discarding 1 mL of blood derived from the catheter, 3 mL of blood was drawn into a vacutainer tube containing heparin and centrifuged at 3000× g for 10 min. The supernatant plasma samples were stored at −80 °C until ginsenoside analysis.
In the second half of the study (RGE + LAB treatment group), 3 pouches of RGE (30 mL, 104.1 mg of total ginsenosides) and 1 pouch of LAB (1 billion CFU/2 g) were co-administered once daily for 14 days. On the […], the subjects were admitted to the Clinical Trial Center of KNUH at 7 AM and received the last red ginseng dose at approximately 8–9 AM. Blood samples (approximately 3 mL) were withdrawn at 0, 4, 6, 8, 10, 12, 13, 14, and 24 h intervals after the last dose and centrifuged at 3000× g for 10 min; the supernatant plasma samples were stored at −80 °C.
Briefly, to analyze GRb1, GRb2, GRc, GRd, GRe, GRf, GRg1, GRg3, GF1, and GF2, 400 μL of an internal standard (IS; 0.05 ng/mL berberine in methanol) was added to 100 μL of plasma. The mixture was vortexed for 15 min and centrifuged at 16,000× g for 5 min. After centrifugation, 400 μL of the supernatant was evaporated using a speed-dry vacuum concentrator (Christ, Osterode am Harz, Germany). The residue was reconstituted using 200 μL of 70% methanol supplemented with 0.1% formic acid, and a 10 μL aliquot was injected into the LC-MS/MS system. Chromatographic separation was performed using a Polar RP column (150 × 2.0 mm, 4.0 μm particle size; Phenomenex, Torrance, CA, USA) using a mobile phase consisting of 0.1% formic acid in water (phase A) and 0.1% formic acid in methanol (phase B). The following elution gradient was used: 69% of phase B for 0–2.0 min, 69–85% of phase B for 2.0–4.0 min, and 85–69% of phase B for 6.0–6.5 min. The flow rate was 0.27 mL/min.
The mixture was vortexed for 10 min and centrifuged at 16,000× g for 5 min. After centrifugation, the samples were frozen at −80 °C for 4 h. The upper layer was transferred to a clean tube and evaporated. The residue was reconstituted using 200 μL of 80% methanol supplemented with 0.1% formic acid, and a 10 μL aliquot was injected into the LC-MS/MS system. Chromatographic separation was performed using a Luna C18 column (150 × 2.0 mm, 3.0 μm particle size; Phenomenex, Torrance, CA, USA) and using a mobile phase consisting of water containing 0.1% formic acid: methanol containing 0.1% formic acid = 8:92 (v/v) at a flow rate of 0.15 mL/min.
The quantification of ginsenosides was carried out using multiple reaction monitoring in positive ionization mode, as previously described.
Finally, pharmacokinetic parameters were calculated using non-compartmental methods (WinNonlin version 5.1; Pharsight Co., Certara, NJ, USA). Statistical analysis was performed by Student’s t-test to compare the two groups using IBM SPSS Statistics for Windows (version 25.0; IBM Corp., Armonk, NY, USA). Differences were considered significant at p < 0.05.

LAB = assay: In vitro RGE fermentation with LAB; format: in vitro ADME
Method: To identify the effects of LAB on ginsenoside metabolism, an in vitro fermentation study was performed according to the method of Jeon et al., with slight modifications. Briefly, RGE (10 mL, 1 pouch) and 2 g LAB (containing 1 billion CFU) were suspended in 10 mL autoclaved MRS broth (550 mg broth powder dissolved in 10 mL water). For the 15 ginsenosides, individual ginsenosides (10 μM each) and 2 g of LAB were suspended in 20 mL of autoclaved MRS broth (550 mg broth powder dissolved in 20 mL water). The mixture was incubated for 7 days in a shaking incubator at 37 °C and 300 rpm, and a 0.1 mL aliquot of the incubation mixture was collected on days 0, 3, 5, and 7. The incubation medium was diluted 100-fold with distilled water and stored at −80 °C to analyze ginsenosides using the LC-MS/MS system.
To measure the metabolic activity of ginsenosides, the formation rate of ginsenosides (pmol/day) was calculated by dividing the slope of the regression line by the amount of deglycosylated ginsenosides versus the incubation time plot by the initial concentration of individual ginsenosides.

[2] = Transport (permeability) of ginsenosides in CaCo-2 cell monolayers; format: in vitro ADME; conditions: human
Method: (§1) CaCo-2 cells (passage no 41–43) were seeded onto collagen-coated permeable support (1.0 μm pore size) in a 24-well plate at a density of 2.5 × 10^4 cells/insert and cultured for 21 days in Dulbecco’s modified eagle’s medium supplemented with 10% fetal bovine serum, 1% non-essential amino acids, and 1% penicillin-streptomycin at 37 °C in a humidified atmosphere (5% CO2/95% air). After confirming that the transepithelial electrical resistance (TEER) of the CaCo-2 cell monolayer was over 400 Ω·cm^2, Apical to basal (A to B) transport and B to A transport of ginsenosides using 50 µM, GRb1 was investigated as previously described. The same permeability study was performed using 50 µM GRb2, GRc, GRd, GRg3, GRh2, GF2, CK, PPD, GRe, GRf, GRg1, GRh1, GF1, or PPT.
(§2) For the transport study of ginsenosides in CaCo-2 cells and LLC-PK1-P-gp cells, the ginsenoside transport rate in the A to B or B to A directions was calculated from the slope of the regression line from the mean transported amounts versus time plot. The apparent permeability (Papp) was calculated using Equation (1). (1) Papp (×10^−6 cm/s)=transport rate (nmol/min)/concentration(μM)×area(cm^2)×60s
(§3) The efflux ratio was calculated by dividing the Papp of ginsenosides from the B to A direction by that from the A to B direction.

[3] = in rats; cited from earlier work
CaCo-2 cells = assay: Transport (permeability) of ginsenosides in CaCo-2 cell monolayers; format: in vitro ADME; conditions: Caco-2
Method: as §1, §2, §3

P-gp = target: T1, P-gp (Homo sapiens, UniProt P08183); assay: Transport of ginsenosides in P-gp-overexpressing LLC-PK1-P-gp cells; format: in vitro ADME
T1 construct: host or cells: LLC-PK1-P-gp cells (passage no. 25–28)
T1 sequence (P08183 whole entry): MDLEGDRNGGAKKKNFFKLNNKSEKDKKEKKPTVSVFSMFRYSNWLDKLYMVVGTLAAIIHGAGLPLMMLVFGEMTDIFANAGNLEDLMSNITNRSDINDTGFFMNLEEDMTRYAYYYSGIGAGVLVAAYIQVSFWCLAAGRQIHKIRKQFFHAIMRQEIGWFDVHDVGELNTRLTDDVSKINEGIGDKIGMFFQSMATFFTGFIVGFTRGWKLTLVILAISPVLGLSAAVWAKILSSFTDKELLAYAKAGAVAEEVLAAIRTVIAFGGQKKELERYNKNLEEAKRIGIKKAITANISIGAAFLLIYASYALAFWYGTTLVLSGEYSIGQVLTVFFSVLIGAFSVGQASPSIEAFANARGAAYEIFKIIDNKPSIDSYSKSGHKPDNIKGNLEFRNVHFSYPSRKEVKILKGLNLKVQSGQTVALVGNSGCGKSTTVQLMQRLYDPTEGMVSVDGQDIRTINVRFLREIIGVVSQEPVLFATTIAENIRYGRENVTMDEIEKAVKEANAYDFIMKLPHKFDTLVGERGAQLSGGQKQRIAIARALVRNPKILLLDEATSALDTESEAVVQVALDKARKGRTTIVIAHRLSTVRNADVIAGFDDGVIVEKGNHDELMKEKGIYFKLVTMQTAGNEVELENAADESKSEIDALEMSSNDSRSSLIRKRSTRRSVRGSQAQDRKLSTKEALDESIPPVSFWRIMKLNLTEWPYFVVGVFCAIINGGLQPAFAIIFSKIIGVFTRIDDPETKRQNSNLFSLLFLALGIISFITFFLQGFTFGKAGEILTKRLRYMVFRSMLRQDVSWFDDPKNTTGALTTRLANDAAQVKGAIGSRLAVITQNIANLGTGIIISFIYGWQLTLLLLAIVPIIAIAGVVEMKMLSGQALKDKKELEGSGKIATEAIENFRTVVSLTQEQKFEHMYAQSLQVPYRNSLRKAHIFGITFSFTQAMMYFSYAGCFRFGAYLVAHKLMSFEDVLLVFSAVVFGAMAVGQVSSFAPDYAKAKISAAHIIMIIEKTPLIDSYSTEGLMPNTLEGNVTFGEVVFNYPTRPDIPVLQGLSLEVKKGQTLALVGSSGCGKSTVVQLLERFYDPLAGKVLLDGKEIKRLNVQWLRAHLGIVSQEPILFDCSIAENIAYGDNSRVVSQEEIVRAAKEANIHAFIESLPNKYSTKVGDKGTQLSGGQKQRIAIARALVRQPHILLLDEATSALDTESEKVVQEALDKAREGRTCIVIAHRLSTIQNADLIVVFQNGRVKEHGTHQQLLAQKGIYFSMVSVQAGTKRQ
Method: LLC-PK1-P-gp cells (passage no. 25–28) were seeded onto collagen-coated permeable support (1.0 μm pore size) in 24-well plates at a density of 2.5 × 10^4 cells/insert and grown for 5 days with TEER values of over 500 Ω·cm^2 [24]. The A to B transport and B to A transport of GRg3, GRh2, CK, PPD, GRg1, GRh1, and PPT (20 μM each) were measured as previously described. The concentration dependency in the B to A transport of GRh2, CK, PPD, and PPT was measured in the range of 6.25–200 μM for GRh2, CK, PPD, and PPT.
as §2, §3
To measure the kinetic parameters of the concentration dependence on the P-gp-mediated ginsenoside efflux, the ginsenoside transport rate in the B to A direction (ν) versus the ginsenoside concentration (S) plot was fitted in the Michaelis–Menten Equation (2) using Sigma Plot (version 12.0, Systat Software Inc. Chicago, IL, USA). (2) ν=Vmax×S/Km+S

[4] = RGE incubated with LAB (1 billion CFU) for 7 days at 37 °C, result in words
[5] = CaCo-2 cell monolayers, 50 µM ginsenoside, read-out: A to B Papp

Compound	Cmax ([1]; human, in vivo, po)	MRT ([1]; human, in vivo, po)	Tmax ([1]; human, in vivo, po)	AUC ([1]; human, in vivo, po, 104.1 mg)	Relative abundance / metabolic activity following fermentation of RGE with LAB (LAB)	A to B Papp (CaCo-2 cells)	Relative abundance / metabolic activity following fermentation of RGE with LAB (LAB; [4])	Papp A→B at 50 µM [2, 5]	further results
CC(C)=CCC[C@](C)(O[C@@H]1O[C@H](CO[C@@H]2O[C@H](CO)[C@@H](O)[C@H](O)[C@H]2O)[C@@H](O)[C@H](O)[C@H]1O)[C@H]1CC[C@]2(C)[C@@H]1[C@H](O)C[C@@H]1[C@@]3(C)CC[C@H](O[C@@H]4O[C@H](CO)[C@@H](O)[C@H](O)[C@H]4O[C@@H]4O[C@H](CO)[C@@H](O)[C@H](O)[C@H]4O)C(C)(C)[C@@H]3CC[C@]12C [GRb1, ginsenoside Rb1]	–	–	–	–	–	–	marked decrease	< 0.3 ×10⁻⁶ cm/s	Change of AUC / pharmacokinetic parameters by RGE and LAB co-administration ([1]; RGE + LAB group versus RGE group, humans, result in words): not different; Cmax ([1]; male, human, plasma, po, 104.1 mg total ginsenosides/day, RGE group, human plasma, RGE oral 14 days, mean ± SD, n = 5, read-out: Cmax): 7.1 ± 3.2 ng/mL; MRT ([1]; male, human, plasma, po, 104.1 mg total ginsenosides/day, RGE group, human plasma, RGE oral 14 days, mean ± SD, n = 5, read-out: MRT): 18.3 ± 1.1 h; Tmax ([1]; male, human, plasma, po, 104.1 mg total ginsenosides/day, RGE group, human plasma, RGE oral 14 days, mean ± SD, n = 5, read-out: Tmax): 5.3 ± 4.6 h; Cmax ([1]; male, human, plasma, po, RGE + LAB group, human plasma, oral 14 days, mean ± SD, n = 5, read-out: Cmax): 6.2 ± 2.9 ng/mL; MRT ([1]; male, human, plasma, po, RGE + LAB group, human plasma, oral 14 days, mean ± SD, n = 5, read-out: MRT): 16.9 ± 0.5 h; Tmax ([1]; male, human, plasma, po, RGE + LAB group, human plasma, oral 14 days, mean ± SD, n = 5, read-out: Tmax): 6.8 ± 1.1 h; AUC ([1]; male, RGE + LAB group, human plasma, RGE plus LAB (1 billion CFU/2 g) once daily oral 14 days, AUC 0 to 24 h, mean ± SD, n = 5, read-out: AUC): 164 ± 77.3 ng·h/mL; AUC ([1]; male, RGE group, human plasma, RGE once daily oral 14 days (104.1 mg total ginsenosides/day), AUC 0 to 24 h, mean ± SD, n = 5, read-out: AUC): 185 ± 80.6 ng·h/mL; Oral bioavailability (BA) [3]: less than 5%
CC(C)=CCCC(C)(OC1OC(CO)C(O)C(O)C1O)C1CCC2(C)C1C(O)CC1C3(C)CCC(O)C(C)(C)C3C(O)CC12C (centres unmarked) [GF1]	–	–	–	–	–	–	remained unchanged	–	Papp A→B at 50 µM ([2]; Caco-2): < 0.3 ×10⁻⁶ cm/s
CC(C)=CCCC(C)(O)C1CCC2(C)C1C(O)CC1C3(C)CCC(O)C(C)(C)C3C(OC3OC(CO)C(O)C(O)C3O)CC12C (centres unmarked) [GRh1]	–	–	–	–	–	–	significantly increased	< 0.3 ×10⁻⁶ cm/s	efflux ratio at 20 μM (P-gp; pig, LLC-PK1, LLC-PK1-P-gp cells, 20 μM, B to A Papp divided by A to B Papp, read-out: ER): 0.9; Papp A→B at 20 μM (P-gp; pig, LLC-PK1-P-gp cells, 20 μM, mean ± SD, n = 3, read-out: A to B permeability): 0.21 ± 0.09 ×10⁻⁶ cm/s; Papp B→A at 20 μM (P-gp; pig, LLC-PK1-P-gp cells, 20 μM, mean ± SD, n = 3, read-out: B to A permeability): 0.18 ± 0.01 ×10⁻⁶ cm/s

Continued, in another order:

Cmax ([1]; human, in vivo, po)	MRT ([1]; human, in vivo, po)	Tmax ([1]; human, in vivo, po)	AUC ([1]; human, in vivo, po, 104.1 mg)	Relative abundance / metabolic activity following fermentation of RGE with LAB (LAB)	A to B Papp (CaCo-2 cells)	Compound	Relative abundance / metabolic activity following fermentation of RGE with LAB (LAB; [4])	Papp A→B at 50 µM [2, 5]	further results
5.1 ± 2.4 ng/mL	18.0 ± 1.2 h	6.2 ± 4.0 h	118.4 ± 58.2 ng·h/mL	marked decrease	below 0.3 × 10^−6 cm/s	CC(C)=CCC[C@](C)(O[C@@H]1O[C@H](CO[C@@H]2O[C@@H](CO)[C@H](O)[C@H]2O)[C@@H](O)[C@H](O)[C@H]1O)[C@H]1CC[C@]2(C)[C@@H]1[C@H](O)C[C@@H]1[C@@]3(C)CC[C@H](O[C@@H]4O[C@H](CO)[C@@H](O)[C@H](O)[C@H]4O[C@@H]4O[C@H](CO)[C@@H](O)[C@H](O)[C@H]4O)C(C)(C)[C@@H]3CC[C@]12C [GRc]	–	–	–
7.2 ± 4.8 ng/mL	7.6 ± 2.8 h	7.2 ± 3.0 h	94.1 ± 50.0 ng·h/mL	remained unchanged	below 0.3 × 10^−6 cm/s	CC(C)=CCC[C@](C)(O)[C@H]1CC[C@]2(C)[C@@H]1[C@H](O)C[C@@H]1[C@@]3(C)CC[C@H](O[C@@H]4O[C@H](CO)[C@@H](O)[C@H](O)[C@H]4O[C@@H]4O[C@H](CO)[C@@H](O)[C@H](O)[C@H]4O)C(C)(C)[C@@H]3CC[C@]12C [GRg3]	–	–	A to B permeability (P-gp; LLC-PK1): 0.07±0.01 × 10^−6 cm/s; B to A permeability (P-gp; LLC-PK1): 0.07±0.01 × 10^−6 cm/s
–	–	–	–	marked decrease	below 0.3 × 10^−6 cm/s	CC(C)=CCC[C@](C)(O[C@@H]1O[C@H](CO)[C@@H](O)[C@H](O)[C@H]1O)[C@H]1CC[C@]2(C)[C@@H]1[C@H](O)C[C@@H]1[C@@]3(C)CC[C@H](O)C(C)(C)[C@@H]3[C@@H](O[C@@H]3O[C@H](CO)[C@@H](O)[C@H](O)[C@H]3O[C@@H]3O[C@@H](C)[C@H](O)[C@@H](O)[C@H]3O)C[C@]12C [GRe]	–	–	–
